From PubChem BioAssay (NCI)
“And” between values parts separate entries of the source, which are not always exact repeats. Equal values may be shown once.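 Cells were grown in 96-well plates and exposed to each compound for 48 hours at five concentrations; endpoints were interpolated linearly between bracketing concentrations, or set to the highest concentration if not reached. GI50: concentration for 50% inhibition of growth. Definition used: TGI = concentration required for complete inhibition of growth.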

Key:
Assay in all cases: NCI anticancer screen, dose series, 48 h
OVCAR-8 ovarian = test system: OVCAR-8 ovarian
SN12C renal = test system: SN12C renal
SF-268 CNS = test system: SF-268 CNS
MCF7 breast = test system: MCF7 breast
K-562 leukemia = test system: K-562 leukemia
KM12 colon = test system: KM12 colon
SW-620 colon = test system: SW-620 colon
SR leukemia = test system: SR leukemia
MDA-MB-231 breast = test system: MDA-MB-231 breast
MDA-MB-435 = test system: MDA-MB-435

Row | SMILES | TGI (OVCAR-8 ovarian) [µM] | TGI (SN12C renal) [µM] | TGI (SF-268 CNS) [µM] | TGI (MCF7 breast) [µM] | TGI (K-562 leukemia) [µM] | TGI (KM12 colon) [µM] | TGI (SW-620 colon) [µM] | TGI (SR leukemia) [µM] | TGI (MDA-MB-231 breast) | TGI (MDA-MB-435) [µM] | GI50 (SR leukemia) [µM] | GI50 (OVCAR-8 ovarian) [µM] | GI50 (MDA-MB-231 breast) [µM] | GI50 (SN12C renal) [µM] | GI50 (SF-268 CNS) [µM] | GI50 (MCF7 breast) [µM] | GI50 (K-562 leukemia) [µM] | GI50 (MDA-MB-435) [µM] | GI50 (KM12 colon) [µM] | GI50 (SW-620 colon) [µM]
1 | COc1cc2c(cc1Oc1c(Oc3c(O)c(OC)cc4c3C(CC(C)C)N(C)CC4)c(OC)cc3c1C(CC(C)C)N(C)CC3)C(CC(C)C)N(C)CC2 (configuration not stated) | 8.24 | 3.53 | 8.85 | 8.3 | 5.65 | 3.78 | 8.28 |  |  |  |  |  |  |  |  |  |  |  |  | 
2 | CC(=O)C(C(C)=O)[C@@H]1OC(C)(C)O[C@@H]1[C@H]1COC(C)(C)O1 | > 100 | 44.9 | > 100 | > 100 | > 100 | > 100 | > 100 | > 100 | > 100 µM | > 100 |  |  |  |  |  |  |  |  |  | 
3 | Cc1ccc(N=Nc2c(O)ccc3cc(S(=O)(=O)O)ccc23)cc1 | > 100 | > 100 | > 100 | > 100 | > 100 | > 100 | > 100 |  | > 100 µM and 45.7 µM | > 100 |  |  |  |  |  |  |  |  |  | 
4 | Cc1cc(OCCOCCC(F)(F)P(=O)(O)O)ccc1CCc1cnc2c(N)nc3cc(CCC(=O)O)ccc3c2c1 | > 100 | > 100 | > 100 | > 100 | > 100 | > 100 | > 100 | > 100 | > 100 µM | > 100 | > 100 | > 100 | > 100 | > 100 | > 100 | > 100 | > 100 | > 100 | > 100 | > 100
5 | COC(=O)c1cn(CC(O)CCl)nn1 (configuration not stated) | > 100 | > 100 | > 100 | > 100 | > 100 | > 100 | > 100 |  | > 100 µM | > 100 |  |  |  |  |  |  |  |  |  | 
6 | S=c1nc(N/N=C/c2cccs2)c2cn[nH]c2[nH]1 | > 100 | > 100 | > 100 | 28.3 | > 100 | 39.1 | > 100 | 37.2 | > 100 µM | 51.9 |  |  |  |  |  |  |  |  |  | 
7 | CN1Cc2cc(O)c(O)cc2C(O)C1 (configuration not stated) | > 100 | > 100 | > 100 | > 100 | > 100 | > 100 | > 100 | > 100 | > 100 µM | > 100 |  |  |  |  |  |  |  |  |  | 
8 | COC(=O)CNC(=O)CCC(C)[C@H]1CCC2C3C(C[C@H](OC(C)=O)[C@@]21C)[C@@]1(C)CCC2(C[C@H]1C[C@H]3OC(C)=O)OOC1(CC[C@]3(C)C4C[C@H](OC(C)=O)[C@@]5(C)C(CC[C@@H]5C(C)CCC(=O)NCC(=O)OC)C4[C@H](OC(C)=O)C[C@@H]3C1)OO2 (some centres not stated) |  |  | 16.1 | > 50 | 4.63 | 41.2 | > 50 |  | 5.96 µM | > 50 |  |  |  |  |  |  |  |  |  | 
9 | COC1=C(C)C(=O)C2=C(C1=O)C1C3CC4=C(C(=O)C(OC)=C(C)C4=O)C(CNC(=O)C(C)O)N3C(C#N)C(C2)N1C (configuration not stated) | 1.32 | 1.72 | 0.146 | 2.25 | 1.48 | 0.827 | 0.235 | > 100 | 0.0178 µM | < 0.01 |  |  |  |  |  |  |  |  |  | 
10 | C=CC(C)C1(CCCOCc2ccccc2)C(=S)N2CCC3(CC24CCCC14)OCCO3 (configuration not stated) | > 100 | > 100 | > 100 |  | > 100 | > 100 | > 100 |  |  |  |  |  |  |  |  |  |  |  |  | 
11 | CN(O)C(=O)CCCC(=O)NCC(C)(C)CNC(=O)CCCC(=O)N(C)O | > 100 |  | > 100 | > 100 | > 100 | > 100 | > 100 | > 100 | > 100 µM | > 100 |  |  |  |  |  |  |  |  |  | 
12 | Cc1[nH]c2ccccc2c1/C=N/NC(=O)c1cccc(I)c1 | > 100 | > 100 | > 100 | 61.7 | 78.7 | 37.1 | > 100 | 44.5 | 57.7 µM | 35.7 |  |  |  |  |  |  |  |  |  | 
13 | COC(=O)[C@]1(c2ccc(N(C)C)cc2OC)C[C@@H]2CCCN(CCc3c1[nH]c1ccccc31)C2 | 57.9 | 41 | 71.2 | 30.7 | 37.7 | > 55.9 | > 100 |  |  |  |  |  |  |  |  |  |  |  |  | 
14 | O=P(Nc1ccccc1)(Oc1ccccc1)N(CCCl)CCCl (configuration not stated) | > 100 | > 100 | > 100 |  | > 100 | > 100 | > 100 | > 100 |  |  |  |  |  |  |  |  |  |  |  | 
15 | O=C(c1cccnc1)N1N=C(c2ccccc2)CC1(O)c1cc(F)c(Cl)cc1Cl (configuration not stated) | > 100 | 39.6 | > 100 |  | 80.4 | > 100 | > 100 | 67 | 35.4 µM | > 100 |  |  |  |  |  |  |  |  |  | 
16 | CCCOP(=O)(OCCC)OC(C(F)(F)F)C(F)(F)F |  | > 100 |  | > 100 | > 100 | > 100 |  | > 100 | > 100 µM | > 100 |  |  |  |  |  |  |  |  |  | 
17 | O=C(Nc1ccccc1Cl)c1ccc([N+](=O)[O-])cc1 | > 100 | > 100 | > 100 |  | > 100 | > 100 | > 100 |  |  |  |  |  |  |  |  |  |  |  |  | 
18 | O=C(O)/C(=C\c1ccc(O)cc1)c1cccc2ccccc12 | > 100 | > 100 | > 100 |  | > 100 | > 100 | > 100 | > 100 | > 100 µM | > 100 |  |  |  |  |  |  |  |  |  | 
19 | COc1ccc(-c2ncn(C[Si](C)(C)C)c2-c2ccc(OC)cc2)cc1 | 31.4 | 24.3 | 28.7 | 31.1 | 10.6 | 19.9 | 17 | 66.2 | 27.6 µM | 13 |  |  |  |  |  |  |  |  |  | 
20 | CC(C)C(=O)/C=C/S/C=C/C(=O)C(C)C | 6.48 | 29.6 | > 100 | > 100 |  | 92.1 | 17 |  | 15.9 µM | 30.1 |  |  |  |  |  |  |  |  |  | 
21 | COc1ccc(NC(C(N)=O)c2cc3cc(Br)ccc3nc2Cl)cc1 (configuration not stated) | > 100 | > 100 | > 100 | > 100 | > 100 | > 100 | > 100 | 51.6 | > 100 µM | 56.5 |  |  |  |  |  |  |  |  |  | 
22 | CCCCCCCCCCCCCC[n+]1ccc(C(N)=O)cc1 | 4.48 | 10.6 |  |  | > 100 |  | 11.2 |  | 4.6 µM | 4.64 |  | 1.68 | 1.85 | 3.2 |  |  | 2.31 | 1.87 |  | 2.31
